We go through two molecules from patent US10561761B2, “Polymer metal-organic framework composites” (Northwestern University, priority 2014, dated 2020).

In data set [1] the test system is HDF cells. Description: MTT cytotoxicity assay, HDF. The following applies: 48 h. On the technique in general: Formazan colour is commonly taken as a measure of viable cells.
Experimental: (§2) HEKa and HDF cells seeded in 96-well plates (5×10^3 cells/well) were incubated with a series of concentrations of PPCN, CuSO4, PCuSO4, CMOF or PCMOF for 48 h. Then, MTT solution was added to each well to a concentration of 0.5 mg/mL and incubated for an additional 4 h. After that, the medium was removed and 100 μL of dimethyl sulfoxide was added to dissolve crystals formed by living cells. Absorbance at 570 nm was measured using a microplate reader. Cell viability was expressed as a percentage of the absorbance to that of the control experiment without treatment.
Data set [2] deals with HDF cells. Description: Apoptosis assay (Annexin V/PI flow cytometry), HDF. The following applies: Cu 0.5 mmol/L, 24 h.
Experimental: (§3) HEKa and HDF cells seeded in 12-well plates (4×10^4 cells/well) were incubated with PPCN, CuSO4, PCuSO4, CMOF or PCMOF (Cu: 0.5 mmol/L) for 24 h. Cells were harvested, washed twice with ice-cold PBS, stained with Alexa Fluor 488 conjugated Annexin V and PI for 15 min at room temperature in dark, and then analyzed by flow cytometry.
Data set [3] deals with HDF cells. Description: Scratch assay (cell migration), HDF. It counts as cell-based, human. To be noted: 54 hrs, Cu 1×10^−3 mmol/L. The procedure:
(§1) HEKa and HDF cells were seeded in 24-well plates (2×10^4 cells/well) and allowed to form a confluent monolayer. After starvation with FBS-free medium for 24 h, the cell monolayer was scratched in a straightline using 200 μL pipette tip to mimic an incisional wound. […] At desired time intervals, cells were photographed and cell migration rate was calculated using the formula shown as below: […]

The test system of data set [4] is HEKa cells. Description: Apoptosis assay (Annexin V/PI flow cytometry), HEKa. To be noted: Cu 0.5 mmol/L, 24 h. A general note: Flow cytometry measures light scatter and fluorescence of single cells or particles in a stream.
Experimental: as §3
The subject of data set [5] is HEKa cells. As to the kind of experiment: MTT cytotoxicity assay, HEKa. To be noted: 48 h.
Experimental: as §2
The nature of data set [6]: ABTS free radical scavenging assay. It counts as biochemical. To be noted: within 48 hrs, 37° C. Here is the method: The ability of PCMOF to scavenge the free radical cation, 2,2′-azino-bis(3-ethylbenzthiazoline-6-sulfonic acid) (ABTS) was assessed. […] A stock solution of 7 mM ABTS and 2.45 mM sodium persulfate in MQ water was prepared and left overnight in the dark at room temperature, after which the solution was sequentially filtered with 0.45 μm filter. […] At each time point, ABTS solution was sampled, diluted with MQ water 1:8 and the absorbance measured at 734 nm. All measurements were performed in triplicate. The antiradical activity was measured as % inhibition of free radicals by measuring the decrease in absorbance compared to PBS solutions at different time points.

The test system of data set [7] is HEKa cells. As to the kind of experiment: Scratch assay (cell migration), HEKa. To be noted: Cu 1×10^−3 mmol/L. Format: cell-based, human. The procedure:
as §1

The test system of data set [8] is HEKa cells.
Experimental: as §2
Data set [9] has as its system HDF cells.
Experimental: as §2

Where two headings read alike, the source gives them in different places.

In the case of `O=S(=O)([O-])[O-].[Cu+2]` [CuSO4, Copper sulfate], the “cytotoxicity (MTT)” value in the data set on HDF cells [1] and in the data set on HEKa cells [5] was “increased with increasing concentrations” in each case. For the same molecule, the cell apoptosis in the data set on HDF cells [2] worked out at 97.84%; with HEKa cells [4], 78.79%. The wound closure rate with HDF cells [3] amounted to 34.15%; in the data set with HEKa cells [7] (30 hrs) it was 56.73%. In data set [6], the ABTS radicals scavenged result is “didn't present a free radical scavenging effect”. The “effect on wound closure versus blank” value in the data set with HEKa cells [7] (8 h) is “significant increase”.

Consider “poly(polyethyleneglycol citrate-co-N-isopropylacrylamide) [PPCN]”, for which the “cytotoxicity (MTT)” value in the data set with HEKa cells [8] and in the data set on HDF cells [9] was “not toxic” in each case.
